# Reference: patent publication US8883841B2, “Oncogenic ras-specific cytotoxic compound and methods of use thereof” (The Board of Regents of the University of Texas System, priority 2005, dated 2014)
# pIC50: −log10 of the molar value. Like-named read-outs stand apart in the source and are kept apart here.
# Experiments:
# [1] = system: A498; assay: NCI in-vitro testing, A498 (Renal Cancer); settings: Homo sapiens
# [2] = system: panel of 60 cancer cell lines; assay: NCI Developmental Therapeutics Program in-vitro testing, panel of 60 cancer cell lines (whole panel); assay type: cell-based
# [3] = system: Hey; assay: Cell viability, Hey ovary cancer cells; assay type: cell-based
# [4] = system: NCI-H23; assay: NCI in-vitro testing, NCI-H23 (Non-Small Cell Lung Cancer)
# [5] = system: CCRF-CEM; assay: NCI in-vitro testing, CCRF-CEM (Leukemia)
# [6] = system: UO-31; assay: NCI in-vitro testing, UO-31 (Renal Cancer)
# [7] = system: LOX IMVI; assay: NCI in-vitro testing, LOX IMVI (Melanoma)
# [8] = system: K-562; assay: NCI in-vitro testing, K-562 (Leukemia)
# [9] = system: SK-MEL-2; assay: NCI in-vitro testing, SK-MEL-2 (Melanoma)
# [10] = Homo sapiens, read-out: Log10 GI50 (converted)
compound,measurement,setting,value
"OCc1cn(Cc2ccc(Cl)cc2)c2ccccc12 [Oncrasin K060, 1H-Indole-3-methanol, 1-[(4-chlorophenyl)methyl]-]",GI50,[1]; A498,0.0124 µM
same,CC50,"[1]; A498, read-out: LC50",0.089 µM
same,GI50,"[1]; A498, read-out: Log10 GI50 (converted)",0.0123 µM
same,anticancer spectrum in NCI panel,"[2]; leukemia, non small lung, colon, melanoma, ovarian, renal, breast",active in a number of cancer cell lines
same,GI50,"[2]; of 54 cancer cell lines tested, read-out: medium 50% growth inhibition (GI50) concentration",1.12 µM
same,pIC50,[3],5.00
same,GI50,"[4]; Homo sapiens, NCI-H23",2.9 µM
same,CC50,"[4]; Homo sapiens, NCI-H23, read-out: LC50",71.1 µM
same,GI50,"[4]; Homo sapiens, NCI-H23, read-out: Log10 GI50 (converted)",2.88 µM
same,TGI,[4]; NCI-H23,2.10E−5 Molar
same,Percent Growth,"[4]; NCI-H23, Log10 Concentration −4.0 Molar",−54%
same,Percent Growth,"[4]; NCI-H23, Log10 Concentration −5.0 Molar",31%
same,Percent Growth,"[4]; NCI-H23, Log10 Concentration −6.0 Molar",67%
same,Percent Growth,"[4]; NCI-H23, Log10 Concentration −7.0 Molar",82%
same,Percent Growth,"[4]; NCI-H23, Log10 Concentration −8.0 Molar",94%
same,TGI,[5],4.31E−6 Molar
same,GI50,[5]; Homo sapiens,1.74 µM
same,CC50,"[5]; Homo sapiens, read-out: LC50",14.8 µM
same,GI50,[5]; [10],1.74 µM
same,Percent Growth,[5]; Log10 Concentration −4.0 Molar,−67%
same,Percent Growth,[5]; Log10 Concentration −5.0 Molar,−47%
same,Percent Growth,[5]; Log10 Concentration −6.0 Molar,81%
same,Percent Growth,[5]; Log10 Concentration −7.0 Molar,97%
same,Percent Growth,[5]; Log10 Concentration −8.0 Molar,100%
same,GI50,"[6]; Homo sapiens, UO-31",1.58 µM
same,CC50,"[6]; Homo sapiens, UO-31, read-out: LC50",> 100 µM
same,GI50,"[6]; Homo sapiens, UO-31, read-out: Log10 GI50 (converted)",1.58 µM
same,TGI,[6]; UO-31,1.55E−5 Molar
same,Percent Growth,"[6]; UO-31, Log10 Concentration −4.0 Molar",−42%
same,Percent Growth,"[6]; UO-31, Log10 Concentration −5.0 Molar",10%
same,Percent Growth,"[6]; UO-31, Log10 Concentration −6.0 Molar",60%
same,Percent Growth,"[6]; UO-31, Log10 Concentration −7.0 Molar",80%
same,Percent Growth,"[6]; UO-31, Log10 Concentration −8.0 Molar",90%
same,TGI,[7],1.58E−6 Molar
same,GI50,[7]; Homo sapiens,4.48 µM
same,CC50,"[7]; Homo sapiens, read-out: LC50",47.2 µM
same,GI50,[7]; [10],4.47 µM
same,Percent Growth,[7]; Log10 Concentration −4.0 Molar,−86%
same,Percent Growth,[7]; Log10 Concentration −5.0 Molar,26%
same,Percent Growth,[7]; Log10 Concentration −6.0 Molar,96%
same,Percent Growth,[7]; Log10 Concentration −7.0 Molar,96%
same,Percent Growth,[7]; Log10 Concentration −8.0 Molar,102%
same,GI50,"[8]; Homo sapiens, K562",19.2 µM
same,CC50,"[8]; Homo sapiens, K562, read-out: LC50",6.46 µM
same,GI50,"[8]; Homo sapiens, K562, read-out: Log10 GI50 (converted)",1.91 µM
same,TGI,[8]; K-562,1.26E−6 Molar
same,Percent Growth,"[8]; K-562, Log10 Concentration −4.0 Molar",−71%
same,Percent Growth,"[8]; K-562, Log10 Concentration −5.0 Molar",8%
same,Percent Growth,"[8]; K-562, Log10 Concentration −6.0 Molar",67%
same,Percent Growth,"[8]; K-562, Log10 Concentration −7.0 Molar",100%
same,Percent Growth,"[8]; K-562, Log10 Concentration −8.0 Molar",114%
same,GI50,"[9]; Homo sapiens, SK-MEL-2",1.58 µM
same,CC50,"[9]; Homo sapiens, SK-MEL-2, read-out: LC50",48.2 µM
same,GI50,"[9]; Homo sapiens, SK-MEL-2, read-out: Log10 GI50 (converted)",1.58 µM
same,TGI,[9]; SK-MEL-2,5.94E−6 Molar
same,Percent Growth,"[9]; SK-MEL-2, Log10 Concentration −4.0 Molar",−64%
same,Percent Growth,"[9]; SK-MEL-2, Log10 Concentration −5.0 Molar",−20%
same,Percent Growth,"[9]; SK-MEL-2, Log10 Concentration −6.0 Molar",67%
same,Percent Growth,"[9]; SK-MEL-2, Log10 Concentration −7.0 Molar",84%
same,Percent Growth,"[9]; SK-MEL-2, Log10 Concentration −8.0 Molar",98%
